The source of these data is paper PMC9948614, “Structural and functional properties of the Kunitz-type and C-terminal domains of Amblyomin-X supporting its antitumor activity” (Frontiers in Molecular Biosciences, 2023).

Data set [1] concerns SK-MEL-28. The experiment in a line: MTT cell viability assay. Particulars: 48 h. As for the experimental part: (§1) Cell viability was measured by 3-(4,5-dimethylthiazol-2-yl)-2,5-diphenyltetrazolium bromide (MTT) assay, as described elsewhere ([Morais et al., 2016]). […] After 48h, 10% of 5 mg/ml MTT was added to the cells and the plates were incubated for 3 h at 37 °C. Afterward, the medium was discarded, the dark blue formazan crystalline product was dissolved in 100 µL dimethyl sulfoxide (DMSO), and the absorbance was measured in a Spectra MAX 190 microplate reader (Molecular Devices, Sunnyvale, United States) at 540 nm.
(§2) Amblyomin-X (50 μM) were used for comparative purpose. Besides, staurosporine (5 μM), MG-132 (3 μM) and bortezomib (80 nM) were used as a positive control.
A general note: Formazan colour is commonly taken as a measure of viable cells.

The subject of data set [2] is MIA PaCa-2. Briefly: MTT cell viability assay. The class given is cell-based, human. The conditions noted are these: 48 h. How it is done:
as §1, §2

The test system of data set [3] is MIA PaCa-2. The conditions noted are these: MIA PaCa-2, Alexa-Fluor 488-labeled molecule 20 µM, 37°C, ImageXpress Micro Confocal, Transfluor module, mean ± SD of three independent experiments. As for the experimental part:
(§3) An additional step was carried out for the purification of peptides using FPLC. SK-MEL-28 and MIA PaCa-2 (10^5 cells/well) were seeded on sterile 35 mm culture dishes. First, a cell-based assay using fluorochrome conjugated molecules was carried by incubation with Amblyomin-X and its synthetic domains (20 µM) in a fresh medium at 37°C for 4 h and nuclei were stained with […] Syto59 (Invitrogen Life Technologies Inc., United States). Then red and green fluorescence were monitored by LSM 510 Meta confocal microscope (Zeiss, Jena, Germany). […] After treatment with synthetic fragments (all at 5 µM) in a fresh medium at 37°C for 4h, tumor cells were scanned on the x-, y-, and z-axes using a confocal microscope TCS SP8 (Leica Microsystems, GmbH Mannheim, DE) with 40x/1.1 objective lens and laser excitation at 405 and 488 nm with additional brightfield channel using the LAS X software (Leica Microsystems, GmbH Mannheim, DE). The images were deconvolved in Huygens Essential version 22.04 (Scientific Volume Imaging, Netherlands).
(§4) Following the same rationale, after treatment, cells were incubated with Alexa Fluor 555 TrF (100 μg/ml), Alexa Fluor 555 CTxB (50 μg/ml) or Alexa Fluor 555 dextran (1 mg/ml) in the binding medium at 37 °C for 20 min. Also, to evaluate cargo-delivery ability of C-ter, tumor cells were incubated with p15 (100 μM) or this molecule conjugate to C-ter (100 μM) for 4 h. […] Finally, evaluation of C-ter derived fragments (all at 10 μM) were investigated after 4 h of treatment.
(§5) In all 96 wells plate assays, nuclei were stained with Hoechst 33342 and fluorescence was monitored by a Molecular Devices ImageXpress Micro Confocal plate-scanning microscope (Molecular Devices, Sunnyvale, CA). Vesicles count were analyzed using MetaXpress software (Molecular Devices, CA) with Transfluor Application Module.

The test system of data set [4] is SK-MEL-28. Particulars: for Vesicles counts: SK-MEL-28, Alexa-Fluor 488-labeled molecule 20 µM, 37°C, ImageXpress Micro Confocal, mean ± SD of three independent experiments. As for the experimental part:
as §3, §4, §5

The test system of data set [5] is SK-MEL-28. Briefly: Cellular uptake by confocal laser scanning microscopy. Particulars: SK-MEL-28, Alexa Fluor 488-labeled molecule 20 µM, 4 h, 37°C. As for the experimental part:
as §3

Data set [6] concerns SK-MEL-28. The conditions noted are these: for Uptake of fluorescent (FITC) peptide by cells: SK-MEL-28, 5 or 10 µM, 6 h, ImageXpress Micro Confocal / confocal TCS SP8. As for the experimental part:
An additional step was carried out for the purification of peptides using FPLC. SK-MEL-28 and MIA PaCa-2 (10^5 cells/well) were seeded on sterile 35 mm culture dishes. […] […] The images were deconvolved in Huygens Essential version 22.04 (Scientific Volume Imaging, Netherlands).
Following the same rationale, after treatment, cells were incubated with Alexa Fluor 555 TrF (100 μg/ml), Alexa Fluor 555 CTxB (50 μg/ml) or Alexa Fluor 555 dextran (1 mg/ml) in the binding medium at 37 °C for 20 min. Also, to evaluate cargo-delivery ability of C-ter, tumor cells were incubated with p15 (100 μM) or this molecule conjugate to C-ter (100 μM) for 4 h. […]
as §5

For a further data set, the system named is dynein chains. The experiment in a line: Gene expression of dynein chains by real-time PCR. The class given is cell-based, human. As for the experimental part:
Gene expression was evaluated via quantitative real-time polymerase chain reaction (qPCR) according to standard protocols previously reported by our group ([Pacheco et al., 2014]; [Morais et al., 2016]). Briefly, after cell treatment, the total RNA was extracted using the RNeasy kit (Qiagen, Netherlands) followed by DNase treatment, Then, cDNA strands were constructed using a SuperScript® III First-Strand Synthesis kit (InvitrogenTM, Life Technologies Inc., United States), according to manufacturer’s instructions. Finally, the samples were applied in a SYBR® green (Applied Biosystems, United States)-based reaction with specific and validated primers to evaluate mRNA levels of genes coding for dynein chains. RNA levels were normalized to glyceraldehyde 3-phosphate dehydrogenase (GAPDH) and quantified using the Livak 2^−ΔΔCT method ([Livak and Schmittgen, 2001]). The experiments were conducted by Step One Plus® PCR real-time system (Applied Biosystems, United States).

Data set [7] relates to SK-MEL-28. Briefly: Microinjection assay, cell death by PI staining. The class given is cell-based, human. Particulars: SK-MEL-28, microinjection of 488-labeled molecule, both 20 µM, 4 h; about 50 cells per condition. As for the experimental part:
SK-MEL-28 cells were plated on glass Cellocate coverslips for 24 h before injection. […] Staurosporine (10 µM) was added directly to the medium for 6 h and was used as a control for PI staining. Ctrl cells were maintained in a culture medium. The solution was injected into the cytoplasm an average of 50 cells for each condition (compensation pressure: 30 hPa; injection pressure: 100 hPa; injection time: 0.3 s). Immediately after injection, cells were replaced with fresh medium in the incubator at 37 °C. After 4 h, cells were stained with PI (1 μg/ml – contain RNAse A 100 ng/ml) for 15 min at r.t.. Then, cells were washed twice with 1X PBS and fixed with 4% paraformaldehyde for 15 min at r.t... Finally, cells were washed with 1X PBS and one drop of solution anti-fade mounting Vectashield® (Vecta Labs) was applied on the slide with the coverslip containing the cells facing down and, then, sealed. The analysis was performed in Leica SP8 confocal microscope (Leica, Germany): Green fluorescence was used to identify microinjected cells and red fluorescence to score cell death.

The next data set concerns the target T1, FXa (Homo sapiens, UniProt P00742).
T1 construct: the active factor X (FXa)
Briefly: FXa activity assay, chromogenic substrate S-2765. The class given is biochemical. The conditions noted are these: FXa 40 nM, 30 min 37 °C, 20 mM Tris–HCl, PS/PC 2 µM, 5 mM CaCl2, pH 8.0, S-2765 200 µM, 405 nm. How it is done:
Supplementary material 1 - FXa activity assays - FXa (40 nM) was incubated with varying concentrations of the Amblyomin-X recombinant protein and the synthetic domains for 30 min at 37 °C in 20 mM Tris–HCl containing PS/PC (2 µM) and 5 mM CaCl2, pH 8.0. Cleavage of the chromogenic substrate S-2765 (200µM, Chromogenix, UK) was monitored at 405 nm (SpectraMax 190, Molecular Devices, USA). The percentage of inhibition was determined from the residual activity of the enzymes as previously reported15, 16.

[8] abbreviates: SK-MEL-28, synthetic domains 0.2–100 μM.
The mark [9] stands for this setting: MIA PaCa-2, synthetic domains 0.2–100 μM.
Where [10] appears, read: tumor cells, other fragments and TAT-Kunitz data not shown.

Where two headings read alike, the source gives them in different places. No end group written: not given here.

T1 sequence (P00742 235-488 limits assumed): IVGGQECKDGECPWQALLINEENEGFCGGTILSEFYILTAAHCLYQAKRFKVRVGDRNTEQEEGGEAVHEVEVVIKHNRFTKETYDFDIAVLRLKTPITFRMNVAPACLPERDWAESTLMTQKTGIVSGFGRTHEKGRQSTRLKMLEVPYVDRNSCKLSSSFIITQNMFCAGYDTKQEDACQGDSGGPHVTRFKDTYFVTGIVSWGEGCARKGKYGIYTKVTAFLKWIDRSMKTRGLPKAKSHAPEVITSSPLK
T1 sequence (P00742 41-179 partner limits assumed): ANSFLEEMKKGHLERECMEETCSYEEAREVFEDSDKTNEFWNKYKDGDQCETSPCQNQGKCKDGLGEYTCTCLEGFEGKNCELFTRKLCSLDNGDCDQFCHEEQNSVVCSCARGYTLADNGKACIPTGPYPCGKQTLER

For “EEQTHFHFESPKLIFKVQDYWILNDIMKKNLTGISLKSEEEDADSGEID [C-ter, Synthetic C-terminal domain of Amblyomin-X, fragment 58-106 with cysteine 67 mutated to Serine]”, the “Effect on cell viability (MTT)” value in the data set with SK-MEL-28 [1] (setting [8]) and in the data set on MIA PaCa-2 [2] (setting [9]) was “no alteration” in each case. In addition, the Vesicles counts in the data set with MIA PaCa-2 [3] (0.25 h) is recorded as 4.36 ± 2.03; with MIA PaCa-2 [3] (0.5 h) it was 17.50 ± 24.63; with MIA PaCa-2 [3] (1 h) it was 10.59 ± 7.15; in the data set with MIA PaCa-2 [3] (2 h), 171.11 ± 248.57; in the data set on MIA PaCa-2 [3] (4 h), 802.63 ± 353.12; in the data set with SK-MEL-28 [4] (0.25 h, MetaXpress Transfluor module) it was 30.84 ± 17.2. The Vesicles counts in the data set with SK-MEL-28 [4] (0.5 h, Transfluor module) stood at 35.56 ± 21.09; in the data set on SK-MEL-28 [4] (1 h, Transfluor module), 62.17 ± 11.20; in the data set with SK-MEL-28 [4] (2 h, Transfluor module) it was 558.48 ± 189.00; in the data set with SK-MEL-28 [4] (4 h, Transfluor module) it was 1210.74 ± 379.14. For the same substance, in the data set with SK-MEL-28 [5], the “Uptake by cells (green fluorescence, confocal)” value was “uptaken”. In addition, the “Uptake of fluorescent (FITC) peptide by cells” value in the data set on SK-MEL-28 [6] is “uptaken”. The “Cells counts per well” value in the data set on SK-MEL-28 [6] (SK-MEL-28, fluorescent peptides 10 µM, all treatments investigated) was “No alterations in cells counts”. Besides, the “Gene expression of dynein chains” value with dynein chains (setting [10]) is “modulated gene expression of dynein chains”.

On to “GRKKRRQRRRPPQANSKAVCNLPKLAGDETCSNKTEIRWYYNGTACEAFIFKGCGGNDNNFDRVDDCQRLC-NH2 (also: bicyclic or more (positions not given here)) [TAT-Kunitz]”, for which the “Cytotoxicity (MTT)” value in the data set on SK-MEL-28 [1] (TAT-Kunitz at 20 and 50 μM, cell line not stated at the place (Figure 7B)) is “significant cytotoxicity activity”.

With “FKVQDYWILNDIMKKNLTGI* [F2C, C-ter derived fragment 16-35, minimum length C-terminal domain able to enter SK-MEL-28 cells]”, the “Relative fluorescence units (RFU) compared with other peptides” value in the data set on SK-MEL-28 [6] (SK-MEL-28, 10 µM, even in short times of treatment) is recorded as “higher values of relative fluorescence units (RFU)”. For the same substance, in the data set with SK-MEL-28 [6], the “Uptake of fluorescent (FITC) peptide by cells” value is listed as “detected in the cell”. The “Gene expression of dynein chains” value with dynein chains (SK-MEL-28, 5 µM, 24 h, real-time PCR, normalized to GAPDH) is listed as “modulate gene expression of all dynein chains evaluated”; in the data set with dynein chains (setting [10]) it was “modulated gene expression of dynein chains”.

On to “ANSKAVCNLPKAGDETCSNKTEIRWYYNGTACEAFIFKGCGGNDNNFDRVDDCQRLC-NH2 (also: bicyclic or more (positions not given here)) [Kunitz]”, for which the “Effect on cell viability (MTT)” value in the data set with SK-MEL-28 [1] (setting [8]) and in the data set on MIA PaCa-2 [2] (setting [9]) was “no alteration” each time. In addition, the “Number of vesicles relative to complete Amblyomin-X” value with SK-MEL-28 [4] is “ten-fold less”. The “Uptake by cells (green fluorescence, confocal)” value with SK-MEL-28 [5] is “not detected inside the cells”. Further, in the data set with SK-MEL-28 [7], the “Propidium iodide (PI) staining after microinjection” value came to 26%. Also, on FXa, the “Inhibitory activity against FXa” value was “lower inhibitory activity against FXa than TFPI-K2”.

Take “C^#WMSPRHLGT C^#EEQTHFHFESPKLISFKVQDYWILNDIMKKNLTGISLKSEEEDADSGEID (disulfide) [p15-C-ter]”: the “Effect on cell viability (MTT)” value is given as “decreased cell viability” with SK-MEL-28 [1] (SK-MEL-28, 100 μM) and “decreased cell viability” with MIA PaCa-2 [2] (MIA PaCa-2, 100 μM). In addition, in the data set with SK-MEL-28 [4], the “Internalization relative to the non-conjugated molecule (p15)” value is “eight-fold more internalized”.
